According to US10669227B2 (THE RESEARCH FOUNDATION OF STATE UNIVERSITY OF NEW YORK, priority 2009, dated 2020):
“Also recorded” adds a separate entry of the source.

Columns and labels:
[1] = test system: human monocytes; assay: Cytotoxicity in human monocytes (MTS); assay type: cell-based
Protocol: Briefly, human peripheral blood monocytes (HMs) were isolated from a leukocyte concentrate by density gradient centrifugation (Lymphoprep) and the isolated HMs cultured (2 h, 37° C.) to remove non-adherent cells. […] After incubation, the proinflammatory cytokines, TNFα, […], MCP-1 and IL-6 were measured in the conditioned media by ELISA and cytotoxicity was assessed by measuring the absorbance (490 nm) of formazan produced by reduction of MTS. The HMs alone±0.1-0.5% DMSO produced minimal levels of these pro-inflammatory cytokines. However, addition of 100 ng/ml or 10 μg/ml of LPS both dramatically stimulated cytokine production.

[2] = test system: IL-6; assay: Inhibition of IL-6 production by LPS-stimulated monocytes; assay type: cell-based; conditions: Homo sapiens, Monocyte, 18 h, read-out: % Inhibition of IL-6 produced by stimulated Monocytes with LPS @ 18 h
Protocol: Briefly, human peripheral blood monocytes (HMs) were isolated from a leukocyte concentrate by density gradient centrifugation (Lymphoprep) and the isolated HMs cultured (2 h, 37° C.) to remove non-adherent cells. The adherent HMs wore cultured for 18 h (1×10^6 cells/well, 24-well plates)±endotoxin (LPS)±different compounds dissolved in DMSO (the final concentration of DMSO in the RPMI serum-free culture media with Pen./Strep. antibiotics was no greater than 0.5%). After incubation, the proinflammatory cytokines, TNFα, […], MCP-1 and IL-6 were measured in the conditioned media by ELISA and cytotoxicity was assessed by measuring the absorbance (490 nm) of formazan produced by reduction of MTS. The HMs alone±0.1-0.5% DMSO produced minimal levels of these pro-inflammatory cytokines. However, addition of 100 ng/ml or 10 μg/ml of LPS both dramatically stimulated cytokine production.

[3] = Solubility in aqueous solutions; assay type: physicochemical; conditions: comparative
[4] = molecular target: collagenase-2 (MMP-8) (Rattus norvegicus (Rat), UniProt O88766); assay: Diabetic rat, MMP-8 in skin extracts by Western blot; assay type: in vivo; conditions: diabetic rats, 100 mg/kg oral once/day, 7 days
Protocol: The latter assays were carried out using Western blot analysis with monoclonal antibodies to MMP-8.

[5] = molecular target: MMP-9 (Rattus norvegicus (Rat), UniProt P50282); assay: Diabetic rat, gingiva gelatinase by gelatin zymography (MMP-9); assay type: in vivo; conditions: diabetic rats, 100 and 500 mg/kg oral daily, 3 weeks
Protocol: (§1) At the end of the treatment protocol, the rats were sacrificed, blood samples were collected, and whole skin (except over limbs) and qingiva were dissected (the skin, because of ample quantities of tissue were analyzed for each rat separately; the gingiva, because of the tiny amounts that could be harvested per rat, were pooled for each experimental group, as prescribed previously for tetracycline studies (30). In addition, the jaw bones were collected, defleshed, and bone loss around the teeth analyzed morphometrically as described previously (42, 43).
This appearance of MMP-9 only in the gingiva (FIG. 10), but not the skin (FIG. 12), of the diabetic rats is likely the result of the oral bacteria inducing inflammation in the gingiva of these immune-suppressed UD rats, whereas the skin is not exposed to this onslaught of bacteria particularly the anaerobic gram-negative bacteria in the mouth that cause periodontal and gingival inflammation.

[6] = molecular target: IL-1β (Rattus norvegicus (Rat), UniProt Q63264); assay: Diabetic rat, IL-1β in gingiva extracts by ELISA; assay type: in vivo; conditions: 3 weeks
Protocol: as §1

[7] = molecular target: MMP-13 (Collagenase-3) (Homo sapiens (Human), UniProt P45452); assay: MMP-13 inhibition in vitro, octapeptide substrate, HPLC; assay type: biochemical; conditions: read-out: MMP-13 Maximum Inhibition @100 μM

SMILES: COC(=O)C(C(=O)/C=C/c1ccc(O)c(OC)c1)C(=O)/C=C/c1ccc(O)c(OC)c1 [Compound 1, 1,7-Bis(4-hydroxy-3-methoxyphenyl)-4-methoxycarbonylhepta-1E,6E-dien-3,5-dione]
- Cytotoxicity Monocytes @ 5 h incubation ([1]; 2 uM): 2 uM - 0%
- Cytotoxicity Monocytes @ 5 h incubation ([1]; 10 uM): 10 uM - 0%
- Cytotoxicity Monocytes @ 5 h incubation ([1]; 25 uM): 25 uM - 33%
- Cytotoxicity Monocytes @ 18 h incubation ([1]; 25 uM): 25 uM - 45.5%
- Cytotoxicity Monocytes @ 18 h incubation ([1]; 50 uM): 50 uM - 53%
- inhibition at 2 µM ([2]; 2 uM): 30%
- inhibition at 25 µM ([2]; 25 uM): 100%
- inhibition at 50 µM ([2]; 50 uM): 100%
- Solubility [3]: improved solubility; also recorded: more soluble than the insoluble natural product curcumin
- MMP-8 level in skin extracts [4]: A similar pattern was observed
- MMP-9 level in gingiva [5]: reduced MMP-9 to the undetectable levels
- Reduction of IL-1β in gingiva vs untreated diabetic ([6]; higher oral dose (500 mg/kg)): 95%
- Reduction of IL-1β in gingiva vs untreated diabetic ([6]; lower dose (100 mg/kg)): about 18%
- inhibition at 100 µM [7]: 69%
